Laboratory results taken from PubChem BioAssay (NCI).
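Grown in 96-well plates, cells were treated for 48 hours with each compound at five concentrations. Insufficient inhibition: endpoint recorded as highest concentration tested. TGI: total growth inhibition.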

Columns and labels:
Experiment in all cases: growth of human tumour cells (NCI), 48 h
LOX IMVI melanoma = system: LOX IMVI melanoma
MDA-N = system: MDA-N
786-0 renal = system: 786-0 renal
SR leukemia = system: SR leukemia
HL-60(TB) leukemia = system: HL-60(TB) leukemia
T-47D breast = system: T-47D breast
HCT-15 colon = system: HCT-15 colon
UACC-257 melanoma = system: UACC-257 melanoma
HOP-62 NSCLC = system: HOP-62 NSCLC
A549 NSCLC = system: A549 NSCLC
MALME-3M melanoma = system: MALME-3M melanoma
RXF 393 renal = system: RXF 393 renal
HCT-116 colon = system: HCT-116 colon
MOLT-4 leukemia = system: MOLT-4 leukemia
ACHN renal = system: ACHN renal
MCF7 breast = system: MCF7 breast
NCI-H23 lung = system: NCI-H23 lung
SNB-19 CNS = system: SNB-19 CNS
UACC-62 melanoma = system: UACC-62 melanoma

| SMILES | TGI (LOX IMVI melanoma) [µM] | TGI (MDA-N) [µM] | TGI (786-0 renal) [µM] | TGI (SR leukemia) [µM] | TGI (HL-60(TB) leukemia) [µM] | TGI (T-47D breast) [µM] | TGI (HCT-15 colon) [µM] | TGI (UACC-257 melanoma) [µM] | TGI (HOP-62 NSCLC) [µM] | TGI (A549 NSCLC) [µM] | TGI (MALME-3M melanoma) [µM] | TGI (RXF 393 renal) [µM] | TGI (HCT-116 colon) [µM] | TGI (MOLT-4 leukemia) [µM] | TGI (ACHN renal) [µM] | TGI (MCF7 breast) [µM] | TGI (NCI-H23 lung) [µM] | TGI (SNB-19 CNS) [µM] | TGI (UACC-62 melanoma) [µM] |
| --- | --- | --- | --- | --- | --- | --- | --- | --- | --- | --- | --- | --- | --- | --- | --- | --- | --- | --- | --- |
| CO[C@@H]1C[C@H]2[C@@H]3CC[C@H]([C@H](C)COC(C)=O)[C@@]3(C)CC[C@@H]2[C@@]2(C)CC[C@H]3C[C@]312 | > 100 | > 100 | > 100 | > 100 | > 100 | > 100 | > 100 | > 100 | > 100 | > 100 | > 100 | > 100 | > 100 | > 100 | > 100 | > 100 | > 100 | > 100 | – |
| COc1ccc(/C=C2\Sc3nnc(-c4ccccc4)n3N=C2c2cc(F)c(Cl)cc2Cl)cc1OC | > 100 | > 100 | > 100 | > 100 | > 100 | > 100 | > 100 | > 100 | > 100 | – | – | 54.4 | > 100 | 68.9 | > 100 | > 100 | > 100 | – | – |
| O=c1oc2ccccc2c(O)c1C(c1cccc(C(c2c(O)c3ccccc3oc2=O)c2c(O)c3ccccc3oc2=O)c1)c1c(O)c2ccccc2oc1=O | 60.2 | > 100 | 45.1 | 58.8 | 45.8 | > 100 | > 100 | > 100 | > 100 | > 100 | – | > 100 | > 100 | 63.3 | > 100 | 61.3 | > 100 | – | 95.7 |
| COc1ccc(CCc2ccc3c(c2)OCO3)cc1 | > 100 | > 100 | > 100 | 45.4 | > 100 | – | > 100 | > 100 | > 100 | > 100 | > 100 | 86 | > 100 | > 100 | > 100 | > 100 | > 100 | > 100 | > 100 |
| CSc1ncc2c(C#N)c3[nH]c4ccccc4n3c(=O)c2n1 | > 100 | > 100 | > 100 | 34.5 | 25.1 | > 100 | 76.4 | > 100 | > 100 | – | – | 95.5 | 57.5 | 24.6 | > 100 | > 100 | > 100 | > 100 | 21.2 |
| COC(=O)CSc1nc2[nH]c(SC)c(C(N)=O)c2c(=O)n1-c1ccccc1 | > 10 | > 10 | > 10 | > 10 | > 10 | > 10 | > 10 | > 10 | > 10 | > 10 | > 10 | > 10 | – | > 10 | – | > 10 | > 10 | – | > 10 |
| CC(=O)N1C(=O)c2cc3ccccc3cc21 | > 100 | > 100 | > 100 | > 100 | > 100 | > 100 | > 100 | – | > 100 | > 100 | – | – | > 100 | – | > 100 | > 100 | > 100 | > 100 | > 100 |
| Cc1c(NC(=O)CSC(=S)N(C)C)c(=O)n(-c2ccccc2)n1C | > 100 | > 100 | > 100 | > 100 | – | > 100 | > 100 | > 100 | > 100 | > 100 | > 100 | > 100 | > 100 | > 100 | > 100 | > 100 | > 100 | > 100 | – |
| Cc1ccc2c(n1)NC(=O)C(Cc1ccccc1)(N=[N+]=[N-])C2=O (stereo not given) | – | > 100 | > 100 | > 100 | – | > 100 | > 100 | > 100 | > 100 | > 100 | > 100 | > 100 | > 100 | > 100 | > 100 | > 100 | > 100 | > 100 | > 100 |
| COC(=O)[C@]12C3=C(O)C(=O)C[C@H]1OC[C@H]2C=CC3 | > 100 | > 100 | > 100 | > 100 | – | > 100 | > 100 | > 100 | > 100 | > 100 | > 100 | > 100 | – | – | > 100 | > 100 | > 100 | > 100 | > 100 |
| CCOC(=O)CC(=O)Nc1cccc2sc3ncccc3c(=O)c12 | > 100 | > 100 | > 100 | > 100 | – | > 100 | > 100 | > 100 | > 100 | > 100 | > 100 | 35.8 | > 100 | > 100 | > 100 | > 100 | > 100 | > 100 | > 100 |
| C[C@H](c1ccccc1)n1c(N)c(-c2nc3ccccc3s2)c2ccc([N+](=O)[O-])cc2c1=O | > 66.6 | > 80.4 | > 100 | 13 | 36.6 | 17.6 | > 75.4 | 76.9 | 56.9 | > 100 | 56.8 | – | 10.9 | 19.9 | 65.7 | 52.2 | 6.66 | > 52.1 | > 100 |
| O=C1C=C(NCC(c2ccccc2)c2ccccc2)C(=O)c2ncccc21 | 5.23 | 3.38 | 15.3 | 4.87 | 3.32 | 13.4 | 1.34 | 2.45 | 4.02 | 1.87 | 3.4 | – | > 23.7 | 6.91 | 13.4 | 3.33 | 5.76 | 9.62 | 2.9 |
